{"source": "PubChem BioAssay (NCI)", "assay_in_all_cases": "growth of human tumour cells (NCI), 48 h", "key": {"786-0 renal": {"tested_on": "786-0 renal"}, "A498 renal": {"tested_on": "A498 renal"}, "A549 NSCLC": {"tested_on": "A549 NSCLC"}, "ACHN renal": {"tested_on": "ACHN renal"}, "BT-549 breast": {"tested_on": "BT-549 breast"}, "CAKI-1 renal": {"tested_on": "CAKI-1 renal"}, "CCRF-CEM leukemia": {"tested_on": "CCRF-CEM leukemia"}, "COLO 205 colon": {"tested_on": "COLO 205 colon"}, "DU-145 prostate": {"tested_on": "DU-145 prostate"}, "EKVX NSCLC": {"tested_on": "EKVX NSCLC"}, "HCC-2998 colon": {"tested_on": "HCC-2998 colon"}, "HCT-116 colon": {"tested_on": "HCT-116 colon"}, "HCT-15 colon": {"tested_on": "HCT-15 colon"}, "HL-60(TB) leukemia": {"tested_on": "HL-60(TB) leukemia"}, "HOP-62 NSCLC": {"tested_on": "HOP-62 NSCLC"}, "HOP-92 NSCLC": {"tested_on": "HOP-92 NSCLC"}, "HS 578T breast": {"tested_on": "HS 578T breast"}, "HT29 colon": {"tested_on": "HT29 colon"}, "IGROV1 ovarian": {"tested_on": "IGROV1 ovarian"}, "K-562 leukemia": {"tested_on": "K-562 leukemia"}, "KM12 colon": {"tested_on": "KM12 colon"}, "LOX IMVI melanoma": {"tested_on": "LOX IMVI melanoma"}, "M14 melanoma": {"tested_on": "M14 melanoma"}, "MALME-3M melanoma": {"tested_on": "MALME-3M melanoma"}, "MCF7 breast": {"tested_on": "MCF7 breast"}, "MDA-MB-231 breast": {"tested_on": "MDA-MB-231 breast"}, "MDA-MB-435": {"tested_on": "MDA-MB-435"}, "MDA-N": {"tested_on": "MDA-N"}, "MOLT-4 leukemia": {"tested_on": "MOLT-4 leukemia"}, "NCI-H226 lung": {"tested_on": "NCI-H226 lung"}, "NCI-H23 lung": {"tested_on": "NCI-H23 lung"}, "NCI-H460 lung": {"tested_on": "NCI-H460 lung"}, "NCI-H522 lung": {"tested_on": "NCI-H522 lung"}, "NCI/ADR-RES ovarian": {"tested_on": "NCI/ADR-RES ovarian"}, "OVCAR-3 ovarian": {"tested_on": "OVCAR-3 ovarian"}, "OVCAR-4 ovarian": {"tested_on": "OVCAR-4 ovarian"}, "OVCAR-5 ovarian": {"tested_on": "OVCAR-5 ovarian"}, "OVCAR-8 ovarian": {"tested_on": "OVCAR-8 ovarian"}, "PC-3 prostate": {"tested_on": "PC-3 prostate"}, "RPMI-8226 leukemia": {"tested_on": "RPMI-8226 leukemia"}, "RXF 393 renal": {"tested_on": "RXF 393 renal"}, "SF-268 CNS": {"tested_on": "SF-268 CNS"}, "SF-295 CNS": {"tested_on": "SF-295 CNS"}, "SF-539 CNS": {"tested_on": "SF-539 CNS"}, "SK-MEL-2 melanoma": {"tested_on": "SK-MEL-2 melanoma"}, "SK-MEL-28 melanoma": {"tested_on": "SK-MEL-28 melanoma"}, "SK-MEL-5 melanoma": {"tested_on": "SK-MEL-5 melanoma"}, "SK-OV-3 ovarian": {"tested_on": "SK-OV-3 ovarian"}, "SN12C renal": {"tested_on": "SN12C renal"}, "SNB-19 CNS": {"tested_on": "SNB-19 CNS"}, "SNB-75 CNS": {"tested_on": "SNB-75 CNS"}, "SR leukemia": {"tested_on": "SR leukemia"}, "SW-620 colon": {"tested_on": "SW-620 colon"}, "T-47D breast": {"tested_on": "T-47D breast"}, "TK-10 renal": {"tested_on": "TK-10 renal"}, "U251 CNS": {"tested_on": "U251 CNS"}, "UACC-257 melanoma": {"tested_on": "UACC-257 melanoma"}, "UACC-62 melanoma": {"tested_on": "UACC-62 melanoma"}, "UO-31 renal": {"tested_on": "UO-31 renal"}}, "note": "Values joined by “and” are separate entries in the source; they are usually repeats but may differ in a detail not shown here. Equal entries are not always repeated.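 96-well plates; 48 h exposure; 5 concentrations. Endpoints by linear interpolation between flanking doses. Not reached: highest tested concentration assigned. GI50 = concentration required for 50% inhibition of growth. At the TGI there is no net growth.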"}
{"smiles": "CC(=O)OC(/C=C/c1ccccc1)P1(=O)N(CC(C)(C)C)[C@@H]2CCCC[C@H]2N1CC(C)(C)C", "note": "(stereo partly drawn)", "values": [{"measurement": "TGI", "setting": "786-0 renal", "result": "21.4 µM and 21.1 µM"}, {"measurement": "TGI", "setting": "A498 renal", "result": 21.8, "unit": "µM"}, {"measurement": "TGI", "setting": "A549 NSCLC", "result": "17.3 µM and 18.5 µM"}, {"measurement": "TGI", "setting": "ACHN renal", "result": "21.6 µM and 20.3 µM"}, {"measurement": "TGI", "setting": "BT-549 breast", "result": "28.5 µM and 25.9 µM"}, {"measurement": "TGI", "setting": "CAKI-1 renal", "result": "31.3 µM and 23.6 µM"}, {"measurement": "TGI", "setting": "CCRF-CEM leukemia", "result": "47.8 µM and 34.1 µM"}, {"measurement": "TGI", "setting": "COLO 205 colon", "result": "13.2 µM and 10.8 µM"}, {"measurement": "TGI", "setting": "DU-145 prostate", "result": "23.7 µM and 23.5 µM"}, {"measurement": "TGI", "setting": "EKVX NSCLC", "result": "19.1 µM and 18.9 µM"}, {"measurement": "TGI", "setting": "HCC-2998 colon", "result": "16.1 µM and 8.6 µM"}, {"measurement": "TGI", "setting": "HCT-116 colon", "result": "15 µM and 13.4 µM"}, {"measurement": "TGI", "setting": "HCT-15 colon", "result": "20.9 µM and 17.6 µM"}, {"measurement": "TGI", "setting": "HL-60(TB) leukemia", "result": "21.6 µM and 18.7 µM"}, {"measurement": "TGI", "setting": "HOP-62 NSCLC", "result": "38.3 µM and 30.3 µM"}, {"measurement": "TGI", "setting": "HOP-92 NSCLC", "result": 26.4, "unit": "µM"}, {"measurement": "TGI", "setting": "HS 578T breast", "result": "24.5 µM and 27.1 µM"}, {"measurement": "TGI", "setting": "HT29 colon", "result": "17.6 µM and 15.6 µM"}, {"measurement": "TGI", "setting": "IGROV1 ovarian", "result": "19.6 µM and 19.3 µM"}, {"measurement": "TGI", "setting": "K-562 leukemia", "result": "21.7 µM and 20.6 µM"}, {"measurement": "TGI", "setting": "KM12 colon", "result": "26.1 µM and 21.4 µM"}, {"measurement": "TGI", "setting": "LOX IMVI melanoma", "result": "24 µM and 24.5 µM"}, {"measurement": "TGI", "setting": "M14 melanoma", "result": "17.5 µM and 18.9 µM"}, {"measurement": "TGI", "setting": "MALME-3M melanoma", "result": "26.8 µM and 26.4 µM"}, {"measurement": "TGI", "setting": "MCF7 breast", "result": "16 µM and 17.5 µM"}, {"measurement": "TGI", "setting": "MDA-MB-231 breast", "result": "24.4 µM and 20.4 µM"}, {"measurement": "TGI", "setting": "MDA-MB-435", "result": "28.8 µM and 22.1 µM"}, {"measurement": "TGI", "setting": "MDA-N", "result": "23.1 µM and 21 µM"}, {"measurement": "TGI", "setting": "MOLT-4 leukemia", "result": "17.1 µM and 14.7 µM"}, {"measurement": "TGI", "setting": "NCI-H226 lung", "result": "21.8 µM and 25.7 µM"}, {"measurement": "TGI", "setting": "NCI-H23 lung", "result": "20.3 µM and 17.1 µM"}, {"measurement": "TGI", "setting": "NCI-H460 lung", "result": "21.1 µM and 19 µM"}, {"measurement": "TGI", "setting": "NCI-H522 lung", "result": "13.3 µM and 12.8 µM"}, {"measurement": "TGI", "setting": "NCI/ADR-RES ovarian", "result": "20.6 µM and 18.3 µM"}, {"measurement": "GI50", "setting": "OVCAR-3 ovarian", "result": "8.41 µM and 3.47 µM"}, {"measurement": "TGI", "setting": "OVCAR-3 ovarian", "result": "25.4 µM and 17.1 µM"}, {"measurement": "TGI", "setting": "OVCAR-4 ovarian", "result": "20.5 µM and 19.7 µM"}, {"measurement": "TGI", "setting": "OVCAR-5 ovarian", "result": "23.4 µM and 23.5 µM"}, {"measurement": "TGI", "setting": "OVCAR-8 ovarian", "result": "19.7 µM and 21.6 µM"}, {"measurement": "TGI", "setting": "PC-3 prostate", "result": "12.1 µM and 10.1 µM"}, {"measurement": "TGI", "setting": "RPMI-8226 leukemia", "result": 12.1, "unit": "µM"}, {"measurement": "TGI", "setting": "RXF 393 renal", "result": "22 µM and 14.5 µM"}, {"measurement": "TGI", "setting": "SF-268 CNS", "result": "23.3 µM and 22.7 µM"}, {"measurement": "TGI", "setting": "SF-295 CNS", "result": "25.4 µM and 14.9 µM"}, {"measurement": "TGI", "setting": "SF-539 CNS", "result": "21.2 µM and 28.6 µM"}, {"measurement": "TGI", "setting": "SK-MEL-2 melanoma", "result": "24.3 µM and 18.5 µM"}, {"measurement": "TGI", "setting": "SK-MEL-28 melanoma", "result": "34.4 µM and 28.5 µM"}, {"measurement": "TGI", "setting": "SK-MEL-5 melanoma", "result": "17.4 µM and 18.7 µM"}, {"measurement": "TGI", "setting": "SK-OV-3 ovarian", "result": "37.4 µM and 25.7 µM"}, {"measurement": "TGI", "setting": "SN12C renal", "result": "22.6 µM and 21.6 µM"}, {"measurement": "TGI", "setting": "SNB-19 CNS", "result": "23.5 µM and 24.2 µM"}, {"measurement": "GI50", "setting": "SNB-75 CNS", "result": "3.91 µM and 0.684 µM"}, {"measurement": "TGI", "setting": "SNB-75 CNS", "result": "12.8 µM and 4.17 µM"}, {"measurement": "TGI", "setting": "SR leukemia", "result": "19.5 µM and 14.5 µM"}, {"measurement": "TGI", "setting": "SW-620 colon", "result": "31.3 µM and 20.7 µM"}, {"measurement": "GI50", "setting": "T-47D breast", "result": "2.9 µM and 1.18 µM"}, {"measurement": "TGI", "setting": "T-47D breast", "result": "9.04 µM and 6.4 µM"}, {"measurement": "GI50", "setting": "TK-10 renal", "result": "10.1 µM and 4.82 µM"}, {"measurement": "TGI", "setting": "TK-10 renal", "result": "22.4 µM and 16.6 µM"}, {"measurement": "TGI", "setting": "U251 CNS", "result": "22.6 µM and 19.7 µM"}, {"measurement": "TGI", "setting": "UACC-257 melanoma", "result": "13.2 µM and 11.6 µM"}, {"measurement": "TGI", "setting": "UACC-62 melanoma", "result": "21.1 µM and 23.2 µM"}, {"measurement": "TGI", "setting": "UO-31 renal", "result": "19.6 µM and 17 µM"}]}
